Usually % Inhibition stands for how much of the control response was suppressed. Low values mean a weak effect, high ones a strong effect.

Strand notation (5' to 3'): a small letter for the sugar, then the base; units joined by * are phosphorothioate-linked, units joined directly phosphodiester-linked; [ ] holds rarer units or linkages, { } end groups; capitals alone tell only the bases. k = constrained ethyl (cEt); [5mC] = 5-methylcytosine; d = 2'-deoxy (DNA)

For the series, the system named is human SMAD7 mRNA. Briefly: Antisense inhibition of human SMAD7 mRNA expression in Hep3B cells by 3-10-3 cEt gapmers, 10,000 nM, electroporation (Example 2). To be noted: approximately 24 hours. It counts as cell-based. The gist of the method: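 qRT-PCR (RTS5062) of SMAD7 mRNA, normalised to RIBOGREEN total RNA, gave percent inhibition relative to untreated controls. Hep3B cells at 20,000 per well received 10,000 nM oligonucleotide by electroporation, with ~24 h treatment.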

[1] abbreviates: Hep3B cells, electroporation, 10,000 nM antisense oligonucleotide, RTS5062, relative to untreated control cells.
Setting [2] is: Hep3B cells, electroporation with 10,000 nM antisense oligonucleotide, RTS5062, percent inhibition of SMAD7 mRNA relative to untreated control cells.
[3] abbreviates: Hep3B cells, electroporation with 10,000 nM antisense oligonucleotide, primer probe set RTS5062, relative to untreated control cells.
Setting [4] is: Hep3B cells, electroporation with 10,000 nM antisense oligonucleotide, SMAD7 mRNA by RT-PCR (RTS5062), relative to untreated control cells.
[5] abbreviates: SMAD7 mRNA, Hep3B cells, 10,000 nM antisense oligonucleotide, electroporation, primer probe set RTS5062, relative to untreated control cells.
Where [6] appears, read: Hep3B cells, 10,000 nM antisense oligonucleotide, electroporation, RT-PCR primer probe set RTS5062, relative to untreated control cells.
[7] abbreviates: SMAD7 mRNA, Hep3B cells, electroporation with 10,000 nM antisense oligonucleotide, primer probe set RTS5062, relative to untreated control cells.

“799719 (antisense k[5mC]*k[5mC]*kT*dT*dT*d[5mC]*dT*dA*d[5mC]*dT*dA*dG*dA*kA*kA*kA) [compound 799719]”: under setting [1], the “% inhibition of SMAD7 mRNA expression” value was determined as 19%.
With “799816 (antisense kT*kG*kA*d[5mC]*dA*dA*dG*dG*dT*d[5mC]*d[5mC]*d[5mC]*d[5mC]*kA*kG*kG) [compound 799816]”, under setting [1], the “% inhibition of SMAD7 mRNA expression” value is 19%.
Take “799829 (antisense kG*kA*kG*dT*dT*dT*dG*d[5mC]*dG*dA*dG*d[5mC]*d[5mC]*kA*kA*kG) [compound 799829]”: the “% Inhibition” value under setting [2] is given as 75%.
Take “799265 (antisense k[5mC]*kT*kT*d[5mC]*d[5mC]*dA*dT*d[5mC]*d[5mC]*dA*dA*d[5mC]*dT*k[5mC]*kT*k[5mC]) [compound 799265]”: under setting [3], the “% inhibition of SMAD7 mRNA expression” value turned out to be 3%.
For the substance “798961 (antisense kA*kA*kA*dA*d[5mC]*d[5mC]*d[5mC]*d[5mC]*d[5mC]*dA*dA*d[5mC]*dA*kA*kT*kT) [compound 798961]”, the “% Inhibition” value under setting [3] amounted to 0%.
On to “772889 (k[5mC]*kT*k[5mC]*d[5mC]*dA*dT*dT*d[5mC]*dA*dT*dA*dA*dT*kA*kT*kT; antisense) [compound 772889]”, for which, under setting [4], the “% Inhibition” value is reported as 7%.
In the case of “799832 (antisense k[5mC]*kA*k[5mC]*d[5mC]*d[5mC]*dA*dT*dA*d[5mC]*dT*dT*dG*dG*kA*kA*kG) [compound 799832]”, the “% inhibition of SMAD7 mRNA expression” value under setting [1] came out at 14%.
In the case of “829742 (antisense k[5mC]*kG*k[5mC]*d[5mC]*dG*dG*dA*d[5mC]*dG*dA*dG*d[5mC]*dG*k[5mC]*kA*kG) [compound 829742]”, under setting [5], the “% Inhibition” value worked out at 43%.
With “799296 (antisense kG*k[5mC]*kT*dG*dA*d[5mC]*dT*d[5mC]*dG*d[5mC]*dG*dG*d[5mC]*k[5mC]*kT*kT) [compound 799296]”, the “% Inhibition” value under setting [2] worked out at 45%.
With “830104 (kT*kA*kA*dG*d[5mC]*d[5mC]*d[5mC]*dG*d[5mC]*dT*d[5mC]*dT*d[5mC]*kA*kG*k[5mC]; antisense) [compound 830104]”, under setting [4], the “% Inhibition” value was determined as 28%.
On the same count and under the same terms, the value for “799468 (antisense kT*k[5mC]*kA*d[5mC]*d[5mC]*dT*dT*dA*dG*dG*d[5mC]*d[5mC]*dT*kG*kT*kG) [compound 799468]” was 22%.
For the substance “798940 (antisense kA*kA*kA*dA*d[5mC]*dG*dA*d[5mC]*d[5mC]*dA*dA*dA*dG*kA*kG*kT) [compound 798940]”, the “% Inhibition” value under setting [3] amounted to 29%.
Regarding “799549 (kG*k[5mC]*kT*d[5mC]*d[5mC]*dT*dA*d[5mC]*dT*dG*dT*dT*dG*kG*k[5mC]*kA; antisense) [compound 799549]”, the “% Inhibition” value under setting [2] is listed as 53%.
As to “800108 (antisense kG*kG*kA*dA*dT*d[5mC]*dT*dA*dG*dA*dA*dA*dA*k[5mC]*kA*k[5mC]) [compound 800108]”, the “% Inhibition” value under setting [4] is reported as 12%.
For “799911 (antisense kA*kG*k[5mC]*d[5mC]*dA*dA*d[5mC]*dT*d[5mC]*d[5mC]*dA*dT*dT*k[5mC]*kA*kT) [compound 799911]”, the “% Inhibition” value under setting [6] is 0%.
Still for that read-out and setting: to “800092 (antisense kA*kT*k[5mC]*d[5mC]*dT*dG*dA*dT*dG*dA*dG*dA*dA*kA*kA*k[5mC]) [compound 800092]” belongs 0%.
Regarding “829927 (kA*kA*kG*dT*d[5mC]*dT*dA*dA*dA*d[5mC]*dA*dT*dG*k[5mC]*kT*k[5mC]; antisense) [compound 829927]”, the “% Inhibition” value under setting [7] was 64%.
Regarding “799108 (antisense k[5mC]*kT*kG*dA*dG*d[5mC]*dT*dG*dG*dT*dT*dT*dT*k[5mC]*kT*kA) [compound 799108]”, the “% inhibition of SMAD7 mRNA expression” value under setting [3] stood at 64%.
Take “798836 (kG*kT*k[5mC]*d[5mC]*dG*dA*dG*dG*d[5mC]*dA*dA*dA*dA*kG*k[5mC]*k[5mC]; antisense) [compound 798836]”: the “% Inhibition” value under setting [6] is 56%.
Consider “799706 (antisense k[5mC]*kT*kT*dG*dT*dG*dG*dT*dA*dA*dA*dA*dT*kA*k[5mC]*kA) [compound 799706]”, for which, under setting [2], the “% Inhibition” value stood at 47%.
“798914 (kG*kT*k[5mC]*d[5mC]*d[5mC]*d[5mC]*dT*d[5mC]*d[5mC]*dG*d[5mC]*dA*d[5mC]*kG*k[5mC]*kG; antisense) [compound 798914]”: under setting [6], the “% Inhibition” value amounted to 56%.
Consider “799257 (antisense k[5mC]*k[5mC]*k[5mC]*d[5mC]*dA*dA*dA*dA*d[5mC]*dT*d[5mC]*d[5mC]*dA*kA*kA*kG) [compound 799257]”, for which the “% Inhibition” value under setting [4] is listed as 27%.
Take “799644 (kT*kT*k[5mC]*d[5mC]*dA*dA*d[5mC]*dA*d[5mC]*dA*dT*dG*d[5mC]*kT*k[5mC]*kT; antisense) [compound 799644]”: the “% Inhibition” value under setting [2] is listed as 31%.
For the substance “799876 (kG*k[5mC]*k[5mC]*dA*dG*dG*dG*d[5mC]*d[5mC]*dG*d[5mC]*dA*d[5mC]*kT*kG*kT; antisense) [compound 799876]”, the “% Inhibition” value under setting [6] was found to be 55%.
Take “830014 (antisense kG*kG*kT*dG*d[5mC]*d[5mC]*dA*dG*dT*d[5mC]*dT*d[5mC]*dA*kA*kA*kT) [compound 830014]”: the “% Inhibition” value under setting [4] is given as 22%.
For “799981 (kA*k[5mC]*k[5mC]*dA*dA*d[5mC]*dG*dG*dT*dT*dG*d[5mC]*d[5mC]*kT*k[5mC]*kA; antisense) [compound 799981]”, under setting [4], the “% Inhibition” value is reported as 14%.
For the substance “799419 (antisense kA*kA*kA*dA*dA*dT*dT*d[5mC]*dA*dA*d[5mC]*d[5mC]*dT*kA*kA*kG) [compound 799419]”, the “% inhibition of SMAD7 mRNA expression” value under setting [3] came out at 0%.
Still for that read-out and setting: the value for “799185 (antisense kT*kT*kA*dA*dA*d[5mC]*d[5mC]*dT*dT*dT*dG*dT*dA*kG*kT*kT) [compound 799185]” was 0%.
In the case of “799795 (k[5mC]*k[5mC]*kA*dG*dA*dT*dG*dT*dT*dT*d[5mC]*d[5mC]*d[5mC]*k[5mC]*kA*k[5mC]; antisense) [compound 799795]”, the “% inhibition of SMAD7 mRNA expression” value under setting [1] is listed as 66%.
“829917 (antisense kA*kG*kT*dG*dT*dA*dT*dG*dA*dG*dT*dT*dG*kT*kA*kG) [compound 829917]”: the “% Inhibition” value under setting [7] is listed as 45%.
Take “772734 (kA*kG*kG*d[5mC]*dA*dG*dG*dG*d[5mC]*d[5mC]*dG*d[5mC]*dG*kA*kG*kG; antisense) [compound 772734]”: the “% Inhibition” value under setting [5] was found to be 16%.
“799056 (antisense k[5mC]*kG*k[5mC]*dT*dG*d[5mC]*dT*d[5mC]*dA*dG*dA*dA*dG*k[5mC]*k[5mC]*kT) [compound 799056]”: the “% Inhibition” value under setting [3] amounted to 28%.
For the substance “799987 (k[5mC]*kA*kA*dA*d[5mC]*dA*dT*d[5mC]*dA*d[5mC]*d[5mC]*dA*d[5mC]*kG*k[5mC]*k[5mC]; antisense) [compound 799987]”, under setting [4], the “% Inhibition” value amounted to 57%.
Consider “830178 (antisense kA*k[5mC]*kG*dA*d[5mC]*dA*dG*d[5mC]*d[5mC]*dT*dG*dG*dA*kG*kA*k[5mC]) [compound 830178]”, for which the “% Inhibition” value under setting [4] was 32%.
For “800015 (k[5mC]*kT*kT*dT*dA*dA*dG*dG*dT*dG*dT*dT*dG*k[5mC]*k[5mC]*k[5mC]; antisense) [compound 800015]”, the “% Inhibition” value under setting [6] is 26%.
Regarding “798744 (antisense kA*kG*k[5mC]*dT*dG*d[5mC]*d[5mC]*dG*d[5mC]*dT*d[5mC]*d[5mC]*dT*kT*k[5mC]*kA) [compound 798744]”, under setting [3], the “% inhibition of SMAD7 mRNA expression” value amounted to 12%.
With “799298 (antisense k[5mC]*k[5mC]*kA*dA*dA*dA*dG*dG*d[5mC]*dT*dG*dA*d[5mC]*kT*k[5mC]*kG) [compound 799298]”, the “% Inhibition” value under setting [2] was determined as 54%.
As for “798977 (antisense kT*kG*k[5mC]*dT*dT*dG*dG*dA*dT*dT*dT*d[5mC]*dT*kG*k[5mC]*kT) [compound 798977]”, under setting [3], the “% Inhibition” value was 43%.
Turning to “798753 (kT*kG*k[5mC]*dA*dG*dT*d[5mC]*d[5mC]*dA*dG*dG*d[5mC]*dG*kG*k[5mC]*k[5mC]; antisense) [compound 798753]”, under setting [4], the “% Inhibition” value is 0%.
Take “798912 (kT*k[5mC]*k[5mC]*dG*d[5mC]*dA*d[5mC]*dG*d[5mC]*dG*dG*d[5mC]*dT*kA*k[5mC]*k[5mC]; antisense) [compound 798912]”: the “% Inhibition” value under setting [6] is 22%.
“772582 (k[5mC]*kT*kG*dA*dA*dA*dG*d[5mC]*d[5mC]*d[5mC]*d[5mC]*d[5mC]*d[5mC]*kA*kG*kG; antisense) [compound 772582]”: under setting [5], the “% Inhibition” value is listed as 34%.
Take “829758 (antisense k[5mC]*kA*k[5mC]*d[5mC]*dG*dG*d[5mC]*d[5mC]*d[5mC]*d[5mC]*dA*dT*dG*k[5mC]*kG*k[5mC]) [compound 829758]”: the “% Inhibition” value under setting [5] was 24%.
For the substance “799930 (antisense kT*k[5mC]*kT*dT*dT*dT*dA*dT*d[5mC]*dA*d[5mC]*dT*dG*kT*k[5mC]*kA) [compound 799930]”, under setting [6], the “% Inhibition” value came to 8%.
In the case of “829716 (antisense kG*kT*k[5mC]*dT*d[5mC]*d[5mC]*d[5mC]*dG*dG*dA*dG*dG*d[5mC]*k[5mC]*kG*kG) [compound 829716]”, the “% Inhibition” value under setting [5] turned out to be 10%.
With “798978 (antisense kT*kT*kT*dG*dG*dT*dG*dG*dT*dG*d[5mC]*dT*dT*kG*kG*kA) [compound 798978]”, the “% Inhibition” value under setting [3] was found to be 25%.
On to “799319 (antisense kT*kG*k[5mC]*dT*dG*dT*dG*dG*dA*dT*dT*dT*dG*kA*kA*kA) [compound 799319]”, for which the “% inhibition of SMAD7 mRNA expression” value under setting [1] is 0%.

The values above are taken from patent US10517889B2, “Modulators of SMAD7 expression” (Ionis Pharmaceuticals, Inc., priority 2017, dated 2019).
